Experimental data published in US6548042B2, “Bis-phosphonate compounds” (priority 2000, dated 2003).
Several values for one entry are separate records, joined by “and”; a condition that tells them apart may be missing. Equal entries are not always repeated.

How the values were obtained:
[1] = Biodistribution of HPLC-purified and nonpurified (crude) compound in nude rats; assay type: in vivo, congenitally athymic nude rats (Han rnu/rnu Rowett)
Procedure: Nude/nude rats with a body weight averaging 60 g were used in the biodistribution experiments. The aim of the study was to compare crude 3h with HPLC-purified 3h. The term “crude compound” refers to the diluted and neutralised labelling reaction mixture described hereinbefore. The compounds were administrated by tail vein injections of 200 μl for each animal, using three animals for each sample. 24 h after injection the animals were killed by a lethal injection and the tissue distribution determined.
Rats. […] At 24 h postinjection the animals were sacrificed, weighed and dissected.
To further evaluate the hydroxybisphosphonate 46a, biodistribution of this compound was obtained in rats. The goal of this experiment was to find whether there was a difference in the properties of the HPLC-purified compound as compared with a nonpurified sample.

[2] = Pharmacokinetics in mice by scintigraphy (gamma camera); assay type: in vivo, balb/c mice
Procedure: Pharmacokinetics in mice. Two animals weighing 20 g and 28 g were anaesthetized and given 250 μl single bolus tail vein injections containing 12 MBq of 46a. The animals were placed under a gamma camera and 2 min frames were collected for the following 2 h. The presented data refers to the animal weighing 20 g.
A gamma camera (ADAC, USA) equipped with a 6 mm pinhole collimator was used. Dynamic data were acquired using a 128×128 matrix size, the field of view was zoomed to the middle 25×25 cm of the camera, and 2 min frames were collected for 2 hours.
The progression from intravenous injection of the hydroxybisphosphonate 46a in mice (balb/c, 20 g) was monitored by means of scintigraphy for 2 h. Images were obtained and dynamic curves for the radioactivity detected in the kidneys and bladder were derived by interactively drawing regions around structures of interest (FIG. 9). […] This is due to the increased sensitivity in the middle of the image, where the accumulation occurs in the kidneys and bladder.

OHS cells = experiment: Antitumour efficacy, OHS osteogenic sarcoma model in nude rats; assay type: in vivo; details: for Mean disease-free latency: 7 days after cell inoculation
Procedure: (§1) Initially, a skeletal metastases model in nude rats, including the human breast carcinoma line MT-1 (1) was tested. A total of 1×10^6 cells were injected into the left vintricula of the heart (L.V.) of 4-5 weeks old nude rats (2). A primary osteogenic sarcoma model in nude rats, was established by intratibial (i.t.) injection of 1×10^6 OHS cells (3-5). A total of 20 animals, allocated in four groups (n=5 for each group) were used for both cell lines. The animals inoculated with MT-1 cells were treated with 200, 300 or 400 MBq/kg of 46a seven days after cell injection. The animals inoculated with OHS cells were treated with 100, 200 or 400 MBq/kg of 46a seven days after cell inoculation. The control groups (MT-1 and OHS) received saline only. Doses were corrected for the actual weight of each animal and administered by single bolus tail vein injections.
The OHS model had been established by intratibial injections of the osteogenic sarcoma (OHS) cell line in immuno-deficient rats.^86,87 Eventually, the rats develop palpable tibial tumours. At the time of treatment (7 days after cell inoculation) the tumours fill approximately 50-60% of the tibial cavity and have a substantial osteoid production closely resembling that of osteoblastic osteosarcomas in the clinic.^88 The model has been used to evaluate the antitumour efficacy of several drugs currently used in the treatment of bone-related cancer.
Disease-free latency was defined as the period between tumour cell inoculation and the time the diameter of the tumour-injected tibia had increased by 2-3 mm compared with that of the non-injected contralateral leg.

[3] = Biodistribution of i.v. administered radioiodinated compounds in balb/c mice;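 note: healthy mice given radioiodinated bisphosphonic acids, with randomly chosen groups of three animals per time point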
Procedure: (§2) Mice. Samples of 100 μl containing 50,100, 400, 140 or 45 KBq of 31a, 34a, 46a, 67a or 72a, respectively, were injected into the tail veins as single bolus injections. […] At 0.5 h, 2 h, 5 h and 24 h postinjection times the animals were sacrificed; except in the case of the phosphate phosphonate derivative 31 were the animals were sacrificed 0.25 h, 2 h, 5 h and 24 h postinjection. Randomly selected groups of three animals were used at each time point. The whole animals were weighed and dissected. The excised organs, i.e. femur, skull, blood, heart, lung, liver, kidney, spleen, stomach, large intestine and small intestine, were weighed separately prior to counting.
(§3) Radioactivity measurements of the labelled compounds were carried out with a liquid scintillation counter (Beckman LS 6500, Beckman Instruments, USA) or with a Capintec CRC-7R radioisotope calibrator (Capintec, USA). The radioactivity level of the excised organs was measured with an automated gamma counter (LKB Wallac 1282, Turku, Finland).

MT-1 cells = experiment: Antitumour efficacy, MT-1 skeletal metastases model in nude rats; assay type: in vivo; details: for Mean survival time: 7 days after cell injection
Procedure: as §1
The MT-1 model simulates formation of mixed lytic/sclerotic skeletal metastasis in breast cancer patients. The model had recently been established in immuno-deficient rats by injections into the left ventricula (L.V.) of the oestrogen receptor-negative human breast cancer (MT-1) cell line.^83,84,85 In this model, large masses of tumour cells build up in the spine, replacing the normal bone marrow and eroding the bone part of the spine.
Treatment with the hydroxybisphosphonate 46a was initiated 7 days after tumour cell inoculation, while the control group received saline only. […] In comparison, the mean survival times for the animals treated with 46a were 27.5 days (range 23-29, one survivor), 29.0 days (range 27-33) and 30.6 days (range 29-33) with increasing dose of 200, 300 and 400 MBq/kg, respectively (n=5 in each group).

[4] = mouse, in vivo
Procedure: as §2, §3

[5] = all animals treated (100, 200, 400 MBq/kg)
[6] = 24 h postinjection, i.v., listed as 3h

In the case of `O=P(O)(O)C(O)(Cc1cccc([131I])c1)P(=O)(O)O` [46a, 1-hydroxy(m-[^131I and ^125I]-iodophenyl)-ethylidene-1,1-bisphosphonic acid], the “Bone affinity of purified compound versus crude product” value ([1]; 24 h) is reported as 3 fold, the Femur uptake ([1]; HPLC purified, nude/nude rats 60 g, 24 h) is reported as 1020 % g dose/g and the “Femur to soft tissue ratio” value ([1]; HPLC-purified sample, 24 h) is reported as > 45. The Uptake in femur ([1]; HPLC-purified sample, 24 h) was 16.44±1.96 % ID/g, the Uptake in kidneys ([1]; HPLC-purified sample, 24 h) was 0.36±0.03 % ID/g and the Uptake in skull ([1]; HPLC-purified sample, 24 h) was 5.84±0.35 % ID/g. For the same molecule, the “Uptake in femur expressed as % gram dose per gram tissue” value ([1]; Rowett rats, 60 g, 24 h) was 986 (Rowett rats, 60 g, 24 h) % gram dose per gram tissue, the Uptake in stomach ([1]; Rowett rats, 60 g, 24 h) was 0.05 ± 0.01 % ID/g and the “Uptake in the thyroid” value ([1]; Rowett rats, 60 g, 24 h) was 0.02 ± 0.01 % injected dose/organ. For the same molecule, the “Ratio between uptake in femur and kidney” value ([1]; Rowett rats, 60 g, 24 h, HPLC purified, listed as 1) was 24 h) and 45.7 (femur/kidney,, the “Ratio between uptake in femur and kidney” value ([1]; Rowett rats, 60 g, 24 h, HPLC purified, listed as 3h) was “above 45” and the “Femur to kidney ratio” value ([1]; nonpurified sample) was 14. For the same molecule, the “Femur to skull ratio” value ([1]; nonpurified sample) was ~7, the “Uptake in the thyroid” value ([1]; nonpurified sample) was 0.03±0.01 % of the total injected radioactivity and the Uptake in femur ([1]; nonpurified sample, 24 h) was 5.28±1.10 % ID/g. For the same molecule, the “Injected activity accumulated in the bladder” value ([2]; after 2 hours, mouse 20 g, 12 MBq i.v.) was 27%, the “Peak uptake in the kidneys (left and right)” value ([2]; at 45 min postinjection) was 7.5 % of the injected dose and the “Biological half-life in the kidneys” value ([2]; from the peak at 45 min) was 50 min. The “Estimated excretion of the injected dose” value ([2]; mouse, in vivo) was 35%, the “Estimated retention of the injected dose” value ([2]; mouse, in vivo) was 65% and the “Time of peak uptake in the kidneys” value ([2]; postinjection) was 45 min. The “Disease-free latency, range” value (OHS cells; 100 MBq/kg) was 18 to 32 days, the Mean disease-free latency (OHS cells; 100 MBq/kg, n=5) was 27 days and the Survivors (OHS cells; 100 MBq/kg, n=5) was “one survivor”. For the same molecule, the “Disease-free latency, range” value (OHS cells; 200 MBq/kg) was 26 to 36 days, the Mean disease-free latency (OHS cells; 200 MBq/kg, n=5) was 30 days and the Survivors (OHS cells; 200 MBq/kg, n=5) was “one survivor”. The “Disease-free latency, range” value (OHS cells; 400 MBq/kg) was 26 to 36 days, the Mean disease-free latency (OHS cells; 400 MBq/kg, n=5) was 31 days and the “Long time survivors (>100 days)” value (OHS cells; [5]) was 33%. For the same molecule, the “Long time survivors (>100 days), animals” value (OHS cells; [5]) was 5 of 15, the Long time survivors (OHS cells; highest dose, 400 MBq/kg, n=5) was 60% and the “Long time survivors (animals)” value (OHS cells; highest dose, 400 MBq/kg, n=5) was 3 and 3 of 5. The “Long time survivors (animals)” value (OHS cells; highest dose, 400 MBq/kg, n=5, listed as 1) was 3 of 5, the “P of increase in disease-free latency time compared to the other groups” value (OHS cells; highest dose, Kruskal-Wallis test) was < 05 and the Lifetime after treatment (OHS cells; osteosarcoma model) was “dramatic increase in lifetime”. It also gave an Uptake in femur ([3]; 0.5 h (30 min) postinjection, i.v.) of 45.03±6.75 % ID/g, an Uptake in femur ([3]; 0.5 h (30 min) postinjection, i.v., listed as 3h) of 45±7 % ID/g and an Activity in blood ([3]; 0.5 h postinjection, i.v.) of 15.92±12.75 % ID/g. For the same molecule, the Uptake in kidneys ([3]; 0.5 h postinjection, i.v.) was 18.64±1.78 % ID/g, the Uptake in skull ([3]; 0.5 h postinjection, i.v.) was 24.61±3.85 % ID/g and the Uptake in femur ([3]; 2 h postinjection (peak), i.v.) was 45.54±4.10 % ID/g. The Uptake in femur ([3]; 2 h postinjection (peak), i.v., listed as 3h) was 46±4 % ID/g, the Activity in blood ([3]; 2 h postinjection, i.v.) was 1.36±0.25 % ID/g and the “Femur to soft tissue ratio” value ([3]; 24 h, soft tissue with highest uptake) was ≥ 7. For the same molecule, the Uptake in femur ([3]; 24 h postinjection, i.v.) was 37.79±11.78 % ID/g, the Uptake in kidneys ([3]; 24 h postinjection, i.v.) was 5.16±2.00 % ID/g and the Uptake in liver ([3]; 24 h postinjection, i.v.) was 2.27±0.69 % ID/g. The Uptake in femur [3, 6] was 38±12 % ID/g, the Uptake in kidneys [3, 6] was 5±2 % ID/g and the Uptake in liver [3, 6] was 2±0.7 % ID/g. The “Uptake in femur expressed as % gram dose per gram tissue” value ([3]; balb/c mice, 20-25 g, 2 h, maximum uptake, listed as 1) was 1025 (balb/c mice, 20-25 g, 2 h), % gram dose per gram tissue, the Uptake in stomach ([3]; balb/c mice, 20-25 g, 24 h) was 0.13 ± 0.01 % ID/g and the “Uptake in the thyroid” value ([3]; balb/c mice, 20-25 g, 24 h) was 0.06 ± 0.04 % injected dose/organ. The “Ratio between uptake in femur and kidney” value ([3]; balb/c mice, 20-25 g, 24 h, listed as 1) was 7.3 (femur/kidney, balb/c mice, 20-25 g,, the “Ratio between uptake in femur and kidney” value ([3]; balb/c mice, 20-25 g, 24 h, listed as 3h) was 7 and the “In vivo stability relative to compound 2 and 3” value ([3]; from thyroid and stomach uptake, Table 3) was “about 7 times”. For the same molecule, the “Discomfort or toxicity after administration of samples” value ([3]; single bolus tail vein injection, 100 μl) was “No sign of discomfort or toxicity was observed”, the “Survival time, range” value (MT-1 cells; 200 MBq/kg) was 23 to 29 days and the Mean survival time (MT-1 cells; 200 MBq/kg, n=5) was 27.5 days. The Long time survivors (MT-1 cells; 200 MBq/kg, n=5) was “one survivor”, the “Survival time, range” value (MT-1 cells; 300 MBq/kg) was 27 to 33 days and the Mean survival time (MT-1 cells; 300 MBq/kg, n=5) was 29.0 days. For the same molecule, the “Survival time, range” value (MT-1 cells; 400 MBq/kg) was 29 to 33 days, the Mean survival time (MT-1 cells; 400 MBq/kg, n=5) was 30.6 days and the “p of increased survival time (lifetime) compared with controls” value (MT-1 cells; all dose levels (200, 300, 400 MBq/kg), Wilcoxon rank-sum test, long time survivors excluded) was < 0.05. The Lifetime after treatment (MT-1 cells; breast cancer model) was “increased lifetime” and the Bone-seeking properties [4] was “potent bone-seekers”.
